# Laboratory results as given in US8124766B2, “Inhibitors of diacylglycerol acyltransferase” (Madrigal Pharmaceuticals, Inc., priority 2008, dated 2012).
# Test system: DGAT
# Test: DGAT Phospholipid FlashPlate Assay
# Assay type: biochemical
# Details: DGAT pellet, DAG-coated PL-FlashPlate, 14C-Pal-CoA, 37° C. for 1 hour; read-out: DGAT Inhibition Activity IC50
# Method: DGAT Phospholipid FlashPlate Assay
# Materials for the assay were: PL-FlashPlate: Phospholipid FlashPlates from PerkinElmer, catalog number SMP108; DAG (1,2-Dioleoyl-sn-glycerol) 10 mM suspended in water containing 0.1% Triton X-100; ^14C-Pal-CoA (palmitoyl coenzyme A, [palmitoyl-1-^14C]) from PerkinElmer, catalog number NEC-555 with a specific activity of 55 mCi/mmol; and DGAT pellet, with a protein concentration of 9.85 mg/ml.
# Aqueous buffers were prepared or purchased as follows: The coating buffer (CB) was purchased from PerkinElmer, catalog number SMP900A; the reaction buffer (RB) was 50 mM Tris-HCl, pH 7.5, 100 mM NaCl, 0.01% BSA in water; the washing buffer (WB) is 50 mM Tris-HCl, pH 7.5, 100 mM NaCl, 0.05% deoxycholic acid sodium salt in water; the dilution buffer (DB) was 50 mM Tris-HCl, pH 7.5, 100 mM NaCl, 1 mM EDTA, 0.2% Triton X-100 in water.
# 1,2-Dioleoyl-sn-glycerol (DAG, 10 mmoles) was diluted to 500 μM with coating buffer (CB). The diluted DAG solution was then added to 384-well PL-FlashPlates at 60 μl per well, and incubated at room temperature for 2 days. The coated plates were then washed twice with washing buffer (WB) before use. Test compounds were serial diluted to 2000, 666.7, 222.2, 74.1, 24.7, 8.2, 2.7 and 0.9 μM in 100% DMSO. Diluted compound were further diluted 10 fold with reaction buffer (RB). ^14C-Pal-CoA was diluted to 8.3 μM with RB. The DGAT pellet was diluted to 0.13 mg protein/ml with dilution buffer (DB) immediately before it was added to the PL-FlashPlates to start the reaction. 20 μl of the RB-diluted compounds (or 10% DMSO in RB for Total and Blank), 15 μl of RB diluted 14C-Pal-CoA and 15 μl of DB diluted DGAT pellet (DB without DGAT for Blanks) were transferred to each well of the PL-FlashPlates. The reaction mixtures were incubated at 37° C. for 1 hour. The reactions were stopped by washing 3 times with WB. Plates were sealed with Top-seal and read on a Topcount instrument.
# Calculation of IC50: The IC50 values for each compound were generated using an Excel template. The Topcount rpm readings of Total and Blank were used as 0% and 100% inhibition. The percent inhibition values of reactions in the presence of compounds were calculated, and plotted against compound concentrations. All data were fitted into a Dose Response One Site model (4 parameter logistic model) as the following: (A+((B−A)/(1+((x/C)^D)))), with A and B as the bottom and top of the curve (highest and lowest inhibition), respectively, and C as IC50 and D as Hill Coefficient of the compound.
row,Compound,IC50 [nM]
1,"CC(C)(C)OC(=O)N1CCN(c2ccc(NC(=O)c3cc4c(Cl)cccc4s3)cn2)CC1 [Example 1, 4-{5-[(4-Chloro-benzo[b]thiophene-2-carbonyl)-amino]-pyridin-2-yl}-piperazine-1-carboxylic acid tert-butyl ester]",292
2,"CC(C)(CC(=O)N1CCN(c2ccc(NC(=O)c3cc4c(Cl)cccc4s3)cn2)CC1)C(=O)O [Example 2, 4-(4-{5-[(4-Chloro-benzo[b]thiophene-2-carbonyl)-amino]-pyridin-2-yl}-piperazin-1-yl)-2,2-dimethyl-4-oxo-butyric acid]",32
3,"CC(C)(C)OC(=O)N1CCN(c2ccc(NC(=O)c3cc4cc(Br)ccc4s3)cn2)CC1 [Example 3, 4-{5-[(5-Bromo-benzo[b]thiophene-2-carbonyl)-amino]-pyridin-2-yl}-piperazine-1-carboxylic acid tert-butyl ester]",479
4,"CC(C)(CC(=O)N1CCN(c2ccc(NC(=O)c3cc4cc(Br)ccc4s3)cn2)CC1)C(=O)O [Example 4, 4-(4-{5-[(5-Bromo-benzo[b]thiophene-2-carbonyl)-amino]-pyridin-2-yl}-piperazin-1-yl)-2,2-dimethyl-4-oxo-butyric acid]",85
5,"CCOc1cccc2c1cc(C(=O)Nc1ccc(N3CCN(C(=O)OC(C)(C)C)CC3)nc1)n2CC [Example 5, 4-{5-[(4-Ethoxy-1-ethyl-1H-indole-2-carbonyl)-amino]-pyridin-2-yl}-piperazine-1-carboxylic acid tert-butyl ester]",180
6,"CCOc1cccc2c1cc(C(=O)Nc1ccc(N3CCN(C(=O)CC(C)(C)C(=O)O)CC3)nc1)n2CC [Example 6, 4-(4-{5-[(4-Ethoxy-1-ethyl-1H-indole-2-carbonyl)-amino]-pyridin-2-yl}-piperazin-1-yl)-2,2-dimethyl-4-oxo-butyric acid]",189
7,"CCOc1cccc2c1cc(C(=O)Nc1ccc(C3CCN(C(=O)CC(C)(C)C(=O)O)CC3)cc1)n2CC [Example 7, 4-(4-{4-[(4-Ethoxy-1-ethyl-1H-indole-2-carbonyl)-amino]-phenyl}-piperidin-1-yl)-2,2-dimethyl-4-oxo-butyric acid]",316
8,"CCn1c(C(=O)Nc2ccc(C3CCN(C(=O)CC(C)(C)C(=O)O)CC3)cc2)cc2c(C)cccc21 [Example 8, 4-(4-{4-[(1-Ethyl-4-methyl-4H-indole-2-carbonyl)-amino]-phenyl}-piperidin-1-yl)-2,2-dimethyl-4-oxo-butyric acid]",528
9,"CCn1c(C(=O)Nc2ccc(C3CCN(C(=O)CC(C)(C)C(=O)O)CC3)cc2)cc2c(Cl)c(Cl)ccc21 [Example 9, 4-(4-{4-[(4,5-Dichloro-ethyl-1H-indole-2-carbonyl)-amino]-phenyl}-piperidin-1-yl)-2,2-dimethyl-4-oxo-butyric acid]",333
10,"CCCOc1cccc2c1cc(C(=O)Nc1ccc(N3CCN(C(=O)OC(C)(C)C)CC3)nc1)n2CC [Example 10, 4-{5-[(1-Ethyl-4-propoxy-1,1-indole-2-carbonyl)-amino]-pyridin-2-yl}-piperazine-1-carboxylic acid tert-butyl ester]",328
11,"CCCOc1cccc2c1cc(C(=O)Nc1ccc(N3CCN(C(=O)CC(C)(C)C(=O)O)CC3)nc1)n2CC [Example 11, 4-(4-{5-[(1-Ethyl-4-propoxy-1H-indole-2-carbonyl)-amino]-pyridin-2-yl}-piperazin-1-yl)-2,2-dimethyl-4-oxo-butyric acid]",105
12,"CCn1c(C(=O)Nc2ccc(N3CCN(C(=O)OC(C)(C)C)CC3)nc2)cc2c(OCC(C)C)cccc21 [Example 12, 4-{5-[(1-Ethyl-4-isobutoxy-1H-indole-2-carbonyl)-amino]-pyridin-2-yl}-piperazine-1-carboxylic acid tert-butyl ester]",273
13,"CCn1c(C(=O)Nc2ccc(N3CCN(C(=O)CC(C)(C)C(=O)O)CC3)nc2)cc2c(OCC(C)C)cccc21 [Example 13, 4-(4-{5-[(1-Ethyl-4-isobutoxy-1H-indole-2-carbonyl)-amino]-pyridin-2-yl}-piperazin-1-yl)-2,2-dimethyl-4-oxo-butyric acid hydrochloric acid]",283
14,"CCn1c(C(=O)Nc2ccc(N3CCN(C(=O)OC(C)(C)C)CC3)nc2)cc2c(C(F)(F)F)cccc21 [Example 14, 4-{5-[(1-Ethyl-4-trifluoromethyl-1H-indole-2-carbonyl)-amino]-pyridin-2-yl}-piperazine-1-carboxylic acid tert-butyl ester]",433
15,"CCn1c(C(=O)Nc2ccc(N3CCN(C(=O)CC(C)(C)C(=O)O)CC3)nc2)cc2c(C(F)(F)F)cccc21 [Example 15, 4-(4-{5-[(1-Ethyl-4-trifluoromethyl-1H-indole-2-carbonyl)-amino]-pyridin-2-yl}-piperazin-1-yl)-2,2-dimethyl-4-oxo-butyric acid]",183
16,"CCn1c(C(=O)Nc2ccc(N3CCN(C(=O)OC(C)(C)C)CC3)nc2)cc2c(OC)cc(OC)cc21 [Example 16, 4-{5-[(1-Ethyl-4,6-dimethoxy-1H-indole-2-carbonyl)-amino]-pyridin-2-yl}-piperazine-1-carboxylic acid tert-butyl ester]",248
17,"CCn1c(C(=O)Nc2ccc(N3CCN(C(=O)CC(C)(C)C(=O)O)CC3)nc2)cc2c(OC)cc(OC)cc21 [Example 17, 4-(4-{5-[(1-Ethyl-4,6-dimethoxy-1H-indole-2-carbonyl)-amino]-pyridin-2-yl}-piperazin-1-yl)-2,2-dimethyl-4-oxo-butyric acid]",270
18,"CCn1c(C(=O)Nc2ccc(N3CCN(C(=O)OC(C)(C)C)CC3)nc2)cc2c(Cl)c(Cl)ccc21 [Example 18, 4-{5-[(4,5-Dichloro-1-ethyl-1H-indole-2-carbonyl)-amino]-pyridin-2-yl}-piperazine-1-carboxylic acid tert-butyl ester]",255
19,"CCn1c(C(=O)Nc2ccc(N3CCN(C(=O)CC(C)(C)C(=O)O)CC3)nc2)cc2c(Cl)c(Cl)ccc21 [Example 19, 4-(4-{5-[(4,5-Dichloro-1-ethyl-1H-indole-2-carbonyl)-amino]-pyridin-2-yl}-piperazin-1-yl)-2,2-dimethyl-4-oxo-butyric acid]",80
20,"CCn1c(C(=O)Nc2ccc(N3CCN(C(=O)OC(C)(C)C)CC3)nc2)cc2c(OC)cccc21 [Example 20, 4-{5-[(1-Ethyl-4-methoxy-1H-indole-2-carbonyl)-amino]-pyridin-2-yl}-piperazine-1-carboxylic acid tert-butyl ester]",84
21,"CCOC(=O)N1CCN(c2ccc(NC(=O)c3cc4c(OC)cccc4n3CC)cn2)CC1 [Example 21, 4-{5-[(1-Ethyl-4-methoxy-1H-indole-2-carbonyl)-amino]-pyridin-2-yl}-piperazine-1-carboxylic acid ethyl ester]",282
22,"CCn1c(C(=O)Nc2ccc(N3CCN(C(=O)OC(C)(C)C)CC3)nc2)cc2c(OC)c(OC)ccc21 [Example 22, 4-{5-[(1-Ethyl-4,5-dimethoxy-1H-indole-2-carbonyl)-amino]-pyridin-2-yl}-piperazine-1-carboxylic acid tert-butyl ester]",86
23,"CCn1c(C(=O)Nc2ccc(N3CCN(C(=O)OC(C)(C)C)CC3)nc2)cc2cc(Cl)ccc21 [Example 23, 4-{5-[(5-Chloro-1-ethyl-1H-indole-2-carbonyl)-amino]-pyridin-2-yl}-piperazine-1-carboxylic acid tert-butyl ester]",571
24,"CC(C)(C)OC(=O)N1CCN(c2ccc(NC(=O)c3cc4c(Cl)cccc4s3)cc2)CC1 [Example 24, 4-{4-[(4-Chloro-benzo[b]thiophene-2-carbonyl)-amino]-phenyl}-piperazine-1-carboxylic acid tert-butyl ester]",512
25,"CC(C)(CC(=O)N1CCC(c2ccc(NC(=O)c3cc4c(Cl)cccc4s3)cc2)CC1)C(=O)O [Example 25, 4-(4-{4-[(4-Chloro-benzo[b]thiophene-2-carbonyl)-amino]-phenyl}-piperidin-1-yl)-2,2-dimethyl-4-oxo-butyric acid]",127
26,"CC(C)(CC(=O)N1CCN(c2ccc(NC(=O)c3cc4c(Cl)cccc4s3)cc2)CC1)C(=O)O [Example 26, 4-(4-{4-[(4-Chloro-benzo[b]thiophene-2-carbonyl)-amino]-phenyl}-piperazin-1-yl)-2,2-dimethyl-4-oxo-butyric acid]",145
